Source: patent US20220400669A1, “COMPOUNDS AND METHODS FOR PROMOTING PLANT GROWTH” (King Abdullah University of Science and Technology, priority 2019, published 2022)
“Also recorded” adds a separate entry of the source.

How the values were obtained:
Type in all cases: in vivo
[1] = system: SL biosynthesis genes D27, CCD7, CCD8, CO; assay: qRT-PCR transcript analysis of SL biosynthesis genes in rice roots; conditions: 5 μM
Method: For transcript analysis, one-week-old seedlings were grown hydroponically in half-strength modified Hoagland nutrient solution with K2HPO4.2H2O (+Pi) and without K2HPO4.2H2O (+Pi) (−Pi) for 7 days. Seedlings were further treated with zaxinone or MZ compounds for 6 h, and tissues were collected.
Roots of rice seedling were ground and homogenized in liquid nitrogen, and total RNA was isolated using a Direct-zol RNA Miniprep Plus Kit following the manufacturer's instructions (ZYMO RESEARCH; USA). cDNA was synthesized from 1 μg of total RNA using iScript cDNA Synthesis Kit (BIO-RAD Laboratories, Inc, 2000 Alfred Nobel Drive, Hercules, Calif.; USA) according to the instructions in the user manual. The gene expression level was detected by real-time quantitative RT-PCR (qRT-PCR) which was performed using SYBR Green Master Mix (Applied Biosystems; www.lifetechnologies.com) in a CFX384 Touch™ Real-Time PCR Detection System (BIO-RAD Laboratories, Inc, 2000 Alfred Nobel Drive, Hercules, Calif.; USA). The gene expression level was calculated by normalization of a housekeeping gene in rice, Ubiquitin (OsUBQ) (Table 1). The relative gene expression level was calculated according to 2-^ΔΔCT method.

[2] = system: tomato plant (c.v. Money maker); assay: Foliar application on tomato plants; conditions: 5 μM foliar application
Method: Tomato seeds (c.v. Money maker) were sterilized and pre-germinated on moistened filter paper at 22° C. for 4-5 days, transferred to light for 3-4 days or direct sowed of seeds from fresh tomatoes in soils at 25° C. Most uniform seedlings (10 days old) were selected and transferred to pots. After one week of the transfer, 5 μM compounds were used for foliar application. Each compound was applied three times in a week up to four weeks: 20 mL per pot (spray as runoff) in first 3 weeks, and 40 mL per pot in last 4th week. The plants were grown under normal growth condition (27° C., 70% RH).

Striga hermonthica = Striga hermonthica infection of rice in pots; conditions: 5 μM, rice cv IAC-165 in pots with Striga infested soil (FIG. 13)
Method: Pots experiment was conducted and slightly adapted from the protocol as described previously About 20 mg (ca 8000) Striga seeds were thoroughly mixed in 1.5 L sand and soil mixture (1:1) and added in 3 L perforated plastic pot containing 0.5 L clean soil in the bottom. The pots were kept in greenhouse-controlled conditions at 35° C. under moisture to preconditioned Striga seeds for 10 days. On 11th day, one week old five rice seedlings (cv IAC165) were planted in each pot. After three days of rice planting, each pot was first irrigated with 250 ml phosphorus deficient Hoaglands nutrient solution and after four hours of irrigation 25 ml formulated MZ3, MZ5 and Zaxinone (100 μM) were sprayed. Next day, each pot was again supplied with 250 ml nutrient solution to make the final concentration of each compound to 5 μM and to move the compound to rice seedlings. Pots with and without Striga seeds were kept as the negative and positive control. Each compound was applied twice in a week up to four weeks. The rice plants were grown under normal growth condition (30° C., 70% RH) for eight weeks. The number of emerged Striga plants in each pot were counted.

wild-type rice plants = assay: Rice phenotypes in soil (rhizotron system); conditions: 5 μM
Method: For testing MZ3 and MZ5 on rice phenotypes in the rhizotron system (48 cm×24 cm×5 cm), three-day-old seedlings were grown in soil with half-strength modified Hoagland nutrient solution containing 0.4 mM K2HPO4.2H2O (+Pi) and 5 μM zaxinone for two weeks. The solution was changed every other day, adding the chemical at each renewal. To increase the compounds stability, 1 μl/ml emulsifier (cyclohexanone+Atlas […] kindly provided by a person […] of CRODA, Gouda; The Netherlands) was added into Hoagland nutrient solution. Root surface area was analyzed with the ImageJ software.

[3] = system: strigolactones (4-deoxyorobanchol, orobanchol) release; assay: LC-MS/MS quantification of SLs in rice root exudates; conditions: 5 μM
Method: For SL analysis, one-week-old seedlings were transferred into 50 ml falcon tubes (two seedlings per tube), containing half-strength Hoagland nutrient solution with K2HPO4.2H2O (+Pi), and grown in the biochamber for one week. Rice seedlings were then subjected to phosphate deficiency (−Pi) for another one week. On the day of root exudates collection, rice seedlings were first treated with 5 μM Zaxinone, or MZ compounds for 6 h, and then root exudates and root tissues were collected from each tube for LC-MS/MS analysis and Striga bioassays.
For the quantification of SLs in rice root exudates, 50 ml of root exudates spiked with 0.672 ng of D6-5-deoxystrigol, was brought on a 500 mg/3 ml fast SPE C18 column preconditioned with 6 ml of methanol and 3 ml of water. After washing with 3 ml of water, SLs were eluted with 5 ml of acetone. The 4-deoxyorobanchol fraction (acetone-water solution) was concentrated to SL aqueous solution (˜500 μl), followed by the extraction with 1 ml of ethyl acetate. 750 μl of SLs enriched organic phase was then transferred to 1.5 ml tube and evaporated to dryness under vacuum. The dried extract was dissolved in 100 μl of acetonitrile:water (25:75, v:v) and filtered through a 0.22 µm filter for LC-MS/MS analysis.

[4] = system: Gigaspora margarita spores; assay: Gigaspora margarita spores germination; conditions: 5 μM and 50 nM, 3 and 7 days
Method: Spores were sterilized in a solution of Streptomycine sulphate (0.03% W/V) and Chloramine T (3% W/V) and germinated in 200 μl of MZ3 and MZ5 at 5 μM or 50 nM, GR24 10 nM or a solution of Water/Acetone (12.5 μl acetone in 25 ml water). For each treatments 96 sterilized spores were placed individually in the wells of a multi-well plate and treated with freshly prepared solutions at the beginning of the experiment and after 3 days. Spores were germinated in the dark at 30° C. and the germination rate was evaluated after 3 days and 7 days.

In the case of `COc1ccc(Oc2cccc(/C=C/C(C)=O)c2)cc1` [MZ3, (E)-4-(3-(4-methoxyphenoxy)phenyl)but-3-en-2-one], the “CCD7 and CO transcript level compared with Zaxinone” value ([1]; wild-type rice roots, Pi starvation, 6 h (FIGS. 12A-12D)) is reported as “significantly lower”, the “transcript levels of SL biosynthesis enzymes D27, CCD7, CCD8 and CO” value ([1]; wild-type rice seedlings, Pi-starvation, 6 h) is reported as “strongest inhibition; also recorded: pronounced decrease” and the “plant height, branch, flowers and fruit numbers compared to zaxinone” value [2] is reported as “strongly increased”. The “reduction of the number of emerging Striga plants compared to the untreated control” value (Striga hermonthica) was 71%, the “root surface area and root numbers of WT plants compared with zaxinone treatment” value (wild-type rice plants) was “increased more” and the “Oro content in root exudates” value ([3]; Pi-starved WT rice, 6 hours, control 20) was 5 pgmg-1dry-root-weight. The “4DO content in root exudates” value ([3]; Pi-starved WT rice, 6 hours, control 25) was 10 pgmg-1dry-root-weight, the “effect on 4-deoxyorobanchol relative to Zaxinone” value ([3]; roots and root exudates, Pi-starved WT rice, 6 hours) was “significantly stronger” and the “SL level of the root exudate” value ([3]; wild-type rice seedlings, Pi-starvation, 6 h, compared with Zaxinone (FIGS. 19, 20A-20B)) was “obvious effect”. For the same compound, the “SL content in zas mutant (high SL phenotype)” value ([3]; zas mutant rice roots and root exudates, Pi starvation (FIGS. 11A-11B)) was “strongly inhibited” and the spore germination rate [4] was “no effect”.
